This note sets out measurements from patent publication US7749983B2, “Metabolically stable alkoxyalkyl esters of antiviral or antiproliferative phosphonates, nucleoside phosphonates and nucleoside phosphates” (priority 2006, dated 2010).

Broadly, the EC50 is the concentration giving half of the maximal effect.

Where “and” joins values, the source holds several entries; their conditions need not be identical. Equal values may be shown once. Read-outs that look alike come from different tables or passages of the source.

Data set [1] can be described thus: Metabolic stability testing with monkey liver S9 fractions. Conditions: FIG. 3; 37° C., protein 3 mg/mL, compound 1 μM.
The test system of data set [2] is cowpox virus, strain Brighton. Nature of the data set: microbe, parasite or virus in culture. The class given is cell-based. Particulars: for EC50: read-out: Cowpox Brighton EC50.
Data set [3] is described as follows: Metabolic stability testing with human liver S9 fractions. Particulars: FIG. 3; 37° C., protein 3 mg/mL, compound 1 μM.
The test system of data set [4] is vaccinia virus strain, Copenhagen. In words: microbe, parasite or virus in culture. It counts as cell-based. Particulars: for EC50: read-out: Vaccinia Copenhagen EC50.
Data set [5] relates to Ectromelia Virus (ECTV, MOS strain). In words: microbe, parasite or virus in culture. It counts as cell-based.
For data set [6], the system named is HFF cells. Nature of the data set: Neutral-red uptake assay for toxicity. Particulars: 7 days.
In data set [7] the test system is ectromelia virus (ECTV). Also noted: species or system A/Ncr mice. Particulars: mouse, in vivo; for MDD, Mean day of death / Mortality: po.
The nature of data set [8]: in vitro.
Data set [9] in a line: Neutral-red uptake assay for toxicity. Particulars: human, HFF cells.
The mark [10] stands for this setting: read-out: Ectromelia Virus EC50.

As to `CC(C)CCCCCCCCCCCCCCOCCCOP(=O)(O)CO[C@H](CO)Cn1ccc(N)nc1=O` [Compound 15M-HDP-CDV, 15-methyl-hexadecyloxypropyl cidofovir], in data set [1], the “degradation by monkey liver S9 fractions (% of drug remaining versus time), relative to HDP-CDV” value was “markedly slower”. Also, the values for the EC50 in data set [2], in data set [4] and in [5] (setting [10]) were 340 nM, 100 nM and 40 nM, respectively. Besides, in data set [3], the “degradation by human liver S9 fractions (% of drug remaining versus time), relative to HDP-CDV” value was “markedly slower”. In [6] (Table 3, neutral-red uptake), this compound displayed a CC50 of 15200 ± 5500 nM.

On to “17-methyl-octadecyloxyethyl cidofovir [Compound 17M-ODE-CDV]”, for which the EC50 in data set [2] stood at 50 nM; in data set [4], 32 nM; in data set [5] (setting [10]) it was 80 nM. In addition, the CC50 in data set [6] (Table 3, neutral-red uptake) is 15000 ± 4000 nM.

Turning to `CC(C)CCCCCCCCCCCCOCCCOP(=O)(O)CO[C@H](CO)Cn1ccc(N)nc1=O` [Compound 13M-TDP-CDV, 13-methyl-tetradecyloxypropyl cidofovir], the figures for the EC50 in data set [2], in [4] and in data set [5] (setting [10]) were 200 nM, 130 nM and 400 nM, respectively. Also, the “MDD, Mean day of death” value in [7] (2.5 mg/kg) is listed as 9.3. For the same compound, the values for the Mortality in data set [7] (2.5 mg/kg), in data set [7] (5 mg/kg) and in data set [7] (10 mg/kg) were 4/5, 0/5 and 0/5, respectively. The CC50 in data set [6] (Table 3, neutral-red uptake) came to 41000 ± 2000 nM.

As to `CC(C)CCCCCCCCCCCCCCOCCOP(=O)(O)CO[C@H](CO)Cn1cnc2c(N)ncnc21` [15M-HDE-HPMPA, 3-(15-methylhexadceyloxy)ethyl (S)-HPMPA], in data set [5] (setting [10]), the EC50 worked out at 12 nM.

In the case of `CC(C)CCCCCCCCCCCCCCOCCCOP(=O)(O)CO[C@H](CO)Cn1cnc2c(N)ncnc21` [15M-HDP-(S)-HPMPA, 3-(15-methylhexadecyloxy)propyl (S)-HPMPA], the concentration for a half-maximal effect (EC50) in data set [2] was 52 nM; in data set [4], 12 nM. In addition, the “activity relative to HDP-(S)-HPMPA in lethal ectromelia infection” value in [7] is “more active than HDP-(S)-HPMPA”. In data set [7] (2.5 mg/kg), the “MDD, Mean day of death” value turned out to be 14.3. The Mortality in data set [7] (2.5 mg/kg) is reported as 3/5; in data set [7] (5 mg/kg), 0/5; in data set [7] (10 mg/kg) it was 0/5. In data set [6] (Table 4, neutral-red uptake), the CC50 came to 27500 nM.

Consider `CCCCCCCCCCCCCCCCOCCOP(=O)(O)COC(CO)Cn1cnc2c(N)ncnc21` (stereo not shown) [HDE-HPMPA, reference compound], for which, in data set [5] (setting [10]), the EC50 was found to be 50 nM.

For `CCCCCCCCCCCCCCCCOCCCOP(=O)(O)CO[C@H](CO)Cn1ccc(N)nc1=O` [HDP-CDV, hexadecyloxypropyl-CDV, reference compound], the “Cowpox Brighton SI (Selectivity Index) = CC50/EC50” value in [2] came to 470. Moreover, the EC50 in data set [2] (Cowpox virus, HFF) is 200 nM; in [4] (Orthopoxvirus vaccinia, HFF) it was 200 nM; in data set [5] (Ectromelia virus, CV-1, read-out: Ectromelia Virus EC50), 140 nM. Moreover, the “Vaccinia Copenhagen SI (Selectivity Index) = CC50/EC50” value in data set [4] worked out at 470. In [8], this compound showed a CC50 of 10000 nM. Also, the “MDD, Mean day of death” value in [7] (2.5 mg/kg) is on record as 13. Further, the Mortality is reported as 2/5 in data set [7] (2.5 mg/kg), 0/5 in [7] (5 mg/kg) and 0/5 in data set [7] (10 mg/kg). Besides, in data set [9], the CC50 at 7 days is 94000 nM.

`Nc1ccn(C[C@@H](CO)OCP(=O)(O)O)c(=O)n1` [CDV, cidofovir]: the “Cowpox Brighton SI (Selectivity Index) = CC50/EC50” value in data set [2] was >10 and >8.3. In addition, the EC50 in data set [2] (Cowpox virus, HFF) was determined as 31000 ± 1700 nM; in data set [2] it was 38100 nM; in [4] (Orthopoxvirus vaccinia, HFF), 19000 ± 9900 nM; in [4], 19400 nM. Besides, the “Vaccinia Copenhagen SI (Selectivity Index) = CC50/EC50” value in [4] was >17 and >16. Moreover, in data set [6] (Table 4, neutral-red uptake), the CC50 was > 317000 nM. The CC50 at 7 days in data set [9] was > 317000 nM.

Consider “14-methyl-pentadecyloxypropyl cidofovir [Compound 14M-PDP-CDV]”, for which the EC50 in data set [2] was determined as 130 nM; in [4], 140 nM; in data set [5] (setting [10]), 170 nM. Further, the “MDD, Mean day of death” value in data set [7] (2.5 mg/kg) is listed as 14. In addition, the Mortality in [7] (2.5 mg/kg) is on record as 1/5; in data set [7] (5 mg/kg) it was 0/5; in data set [7] (10 mg/kg), 0/5. The compound further had a CC50 in [6] (Table 3, neutral-red uptake) of 18000 ± 1100 nM.

For the compound `CC(C)CCCCCCCCCCCOCCCOP(=O)(O)CO[C@H](CO)Cn1ccc(N)nc1=O` [Compound 12M-TrDP-CDV, 12-methyl-tridecyloxypropyl cidofovir], the EC50 in data set [2] stood at 900 nM; in [4] it was 700 nM; in data set [5] (setting [10]), 940 nM. Also, the CC50 in data set [6] (Table 3, neutral-red uptake) was found to be 44000 ± 5400 nM.

Turning to `CCCCCCCCCCCCCCCCCCOCCOP(=O)(O)CO[C@H](CO)Cn1cnc2c(N)ncnc21` [ODE-(S)-HPMPA], the values for the EC50 in [2] and in data set [4] were 12 nM and 8 nM, respectively. For the same compound, the CC50 in [6] (Table 4, neutral-red uptake) is 2100 nM.

With `CC(C)CCCCCCCCCCCCCCCCOCCOP(=O)(O)CO[C@H](CO)Cn1cnc2c(N)ncnc21` [17M-ODE-(S)-HPMPA, 2-(17-methyloctadecyloxy)ethyl (S)-HPMPA], the EC50 in data set [2] turned out to be 11 nM; in data set [4], 9 nM. In [6] (Table 4, neutral-red uptake), the CC50 was 800 nM.

Regarding `CCCCCCCCCCCCCCCCOCCCOP(=O)(O)CO[C@H](CO)Cn1cnc2c(N)ncnc21` [HDP-(S)-HPMPA, reference compound], the EC50 in [2] was found to be 18 nM; in data set [4] it was 10 nM. Besides, the “MDD, Mean day of death” value in data set [7] (2.5 mg/kg) was 9.4; in data set [7] (5 mg/kg) it was 11. Moreover, the Mortality in data set [7] (2.5 mg/kg) is 5/5; in [7] (5 mg/kg), 1/5; in [7] (10 mg/kg), 0/5. The CC50 in data set [6] (Table 4, neutral-red uptake) was 31800 nM.
